Reference: article PMC7901654, “Bioisosteric Discovery of NPA101.3, a Second-Generation RET/VEGFR2 Inhibitor Optimized for Single-Agent Polypharmacology” (Journal of Medicinal Chemistry, 2020)

How the values were obtained:
Assay in all cases: KinomeScan panel screen
Type in all cases: binding
MUSK = biological target: T1, MUSK (Homo sapiens, UniProt O15146); conditions: 100 nM, read-out: Percent Control
T1 construct: purchased DiscoveRx KINOMEscan (TRKA and CSF1R IC50 enzymes from Invitrogen)
Experimental: (§1) In addition, NPA101.3, at a concentration of 100 nM, was subjected to a kinome scan against a 96-kinase panel representing major kinome clusters (Table S2). The compound featured good selectivity, displaying strong binding activity (>90% bound) for only seven additional kinases [CSF1R (colony stimulating factor 1 receptor), FRK (fyn-related Src family tyrosine kinase), HCK (HCK proto-oncogene, Src family tyrosine kinase), LYN (lyn proto-oncogene, Src family tyrosine kinase), MKNK2 (MAPK-interacting serine/threonine kinase 2), TRKA (neurotrophic receptor tyrosine kinase 1), and TRKC (neurotrophic receptor tyrosine kinase 3)] and weak binding (>10–35% bound) for six other kinases (Table S2 and Figure S2). It is important to note that the measurement of binding affinity, which is based on control ligand displacement (Kd), is more sensitive than the in vitro kinase assay. Among the seven kinases with >90% binding, TRKA and CSF1R were selected for an in vitro kinase assay.
(§2) Supplementary Table S2: NPA101.3 KinomeScan Panel screen.
(§3) NPA101.3 was screened at a single concentration of 100 nM. Hits values lower than
(§4) 10% of control were considered strongly positive.
(§5) DiscoveRx Gene Entrez Gene Percent Compound
(§6) Symbol Symbol Control Concentration

TLK1 = biological target: T2, TLK1 (Homo sapiens, UniProt Q9UKI8); conditions: TLK1, 100 nM; read-out: Percent Control
T2 construct: purchased DiscoveRx KINOMEscan (TRKA and CSF1R IC50 enzymes from Invitrogen)
Experimental: as §1, §2, §3, §4, §5, §6

HCK = biological target: T3, HCK (Homo sapiens, UniProt P08631); conditions: 100 nM
T3 construct: purchased DiscoveRx KINOMEscan (TRKA and CSF1R IC50 enzymes from Invitrogen)
Experimental: as §1, §2, §3, §4, §5, §6

MEK1 = biological target: T4, MEK1 (Homo sapiens, UniProt Q02750); conditions: MEK1, 100 nM; read-out: Percent Control
T4 construct: purchased DiscoveRx KINOMEscan (TRKA and CSF1R IC50 enzymes from Invitrogen)
Experimental: as §1, §2, §3, §4, §5, §6

SLK = biological target: T5, SLK (Homo sapiens, UniProt Q9H2G2); conditions: 100 nM, read-out: Percent Control
T5 construct: purchased DiscoveRx KINOMEscan (TRKA and CSF1R IC50 enzymes from Invitrogen)
Experimental: as §1, §2, §3, §4, §5, §6

CTK = biological target: T6, CTK (Homo sapiens, UniProt P42679); conditions: 100 nM, read-out: Percent Control
T6 construct: purchased DiscoveRx KINOMEscan (TRKA and CSF1R IC50 enzymes from Invitrogen)
Experimental: as §1, §2, §3, §4, §5, §6

MLK3 = biological target: T7, MLK3 (Homo sapiens, UniProt Q16584); conditions: MLK3, 100 nM; read-out: Percent Control
T7 construct: purchased DiscoveRx KINOMEscan (TRKA and CSF1R IC50 enzymes from Invitrogen)
Experimental: as §1, §2, §3, §4, §5, §6

NDR1 = biological target: T8, NDR1 (Homo sapiens, UniProt Q15208); conditions: NDR1, 100 nM; read-out: Percent Control
T8 construct: purchased DiscoveRx KINOMEscan (TRKA and CSF1R IC50 enzymes from Invitrogen)
Experimental: as §1, §2, §3, §4, §5, §6

IGF1R = biological target: T9, IGF1R (Homo sapiens, UniProt P08069); conditions: 100 nM, read-out: Percent Control
T9 construct: purchased DiscoveRx KINOMEscan (TRKA and CSF1R IC50 enzymes from Invitrogen)
Experimental: as §1, §2, §3, §4, §5, §6

PKAC-beta = biological target: T10, PKAC-beta (Homo sapiens, UniProt P22694); conditions: 100 nM, read-out: Percent Control
T10 construct: purchased DiscoveRx KINOMEscan (TRKA and CSF1R IC50 enzymes from Invitrogen)
Experimental: as §1, §2, §3, §4, §5, §6

FGFR3 = biological target: T11, FGFR3 (Homo sapiens, UniProt P22607); conditions: FGFR3, 100 nM; read-out: Percent Control
T11 construct: purchased DiscoveRx KINOMEscan (TRKA and CSF1R IC50 enzymes from Invitrogen)
Experimental: as §1, §2, §3, §4, §5, §6

FYN = biological target: T12, FYN (Homo sapiens, UniProt P06241); conditions: 100 nM, read-out: Percent Control
T12 construct: purchased DiscoveRx KINOMEscan (TRKA and CSF1R IC50 enzymes from Invitrogen)
Experimental: as §1, §2, §3, §4, §5, §6

LKB1 = biological target: T13, LKB1 (Homo sapiens, UniProt Q15831); conditions: LKB1, 100 nM; read-out: Percent Control
T13 construct: purchased DiscoveRx KINOMEscan (TRKA and CSF1R IC50 enzymes from Invitrogen)
Experimental: as §1, §2, §3, §4, §5, §6

PIK3CA = biological target: T14, PIK3CA (Homo sapiens, UniProt P42336); conditions: 100 nM, read-out: Percent Control
T14 construct: purchased DiscoveRx KINOMEscan (TRKA and CSF1R IC50 enzymes from Invitrogen)
Experimental: as §1, §2, §3, §4, §5, §6

[1] = biological target: T15, JAK1(JH2domain-pseudokinase) (Homo sapiens, UniProt P23458); conditions: 100 nM, read-out: Percent Control
T15 construct: JAK1(JH2domain-pseudokinase); purchased DiscoveRx KINOMEscan (TRKA and CSF1R IC50 enzymes from Invitrogen)
Experimental: as §1, §2, §3, §4, §5, §6

YANK2 = biological target: T16, YANK2 (Homo sapiens, UniProt Q9NY57); conditions: YANK2, 100 nM; read-out: Percent Control
T16 construct: purchased DiscoverX (outsourced KINOMEscan)
Experimental: as §1, §2, §3, §4, §5, §6

PDPK1 = biological target: T17, PDPK1 (Homo sapiens, UniProt O15530); conditions: PDPK1, 100 nM; read-out: Percent Control
T17 construct: purchased DiscoveRx KINOMEscan (TRKA and CSF1R IC50 enzymes from Invitrogen)
Experimental: as §1, §2, §3, §4, §5, §6

BMX = biological target: T18, BMX (Homo sapiens, UniProt P51813); conditions: 100 nM, read-out: Percent Control
T18 construct: purchased DiscoveRx KINOMEscan (TRKA and CSF1R IC50 enzymes from Invitrogen)
Experimental: as §1, §2, §3, §4, §5, §6

CDK7 = biological target: T19, CDK7 (Homo sapiens, UniProt P50613); conditions: CDK7, 100 nM; read-out: Percent Control
T19 construct: purchased DiscoveRx KINOMEscan (TRKA and CSF1R IC50 enzymes from Invitrogen)
Experimental: as §1, §2, §3, §4, §5, §6

MTOR = biological target: T20, MTOR (Homo sapiens, UniProt P42345); conditions: 100 nM, read-out: Percent Control
T20 construct: purchased DiscoveRx KINOMEscan (TRKA and CSF1R IC50 enzymes from Invitrogen)
Experimental: as §1, §2, §3, §4, §5, §6

STK33 = biological target: T21, STK33 (Homo sapiens, UniProt Q9BYT3); conditions: STK33, 100 nM; read-out: Percent Control
T21 construct: purchased DiscoveRx KINOMEscan (TRKA and CSF1R IC50 enzymes from Invitrogen)
Experimental: as §1, §2, §3, §4, §5, §6

GSK3B = biological target: T22, GSK3B (Homo sapiens, UniProt P49841); conditions: 100 nM, read-out: Percent Control
T22 construct: purchased DiscoveRx KINOMEscan (TRKA and CSF1R IC50 enzymes from Invitrogen)
Experimental: as §1, §2, §3, §4, §5, §6

AURKB = biological target: T23, AURKB (Homo sapiens, UniProt Q96GD4); conditions: 100 nM, read-out: Percent Control
T23 construct: purchased DiscoveRx KINOMEscan (TRKA and CSF1R IC50 enzymes from Invitrogen)
Experimental: as §1, §2, §3, §4, §5, §6

TRKC = biological target: T24, TRKC (Homo sapiens, UniProt Q16288); conditions: 100 nM
T24 construct: purchased DiscoveRx KINOMEscan (TRKA and CSF1R IC50 enzymes from Invitrogen)
Experimental: as §1, §2, §3, §4, §5, §6

EGFR = biological target: T25, EGFR (Homo sapiens, UniProt P00533); conditions: 100 nM, read-out: Percent Control
T25 construct: purchased DiscoveRx KINOMEscan (TRKA and CSF1R IC50 enzymes from Invitrogen)
Experimental: as §1, §2, §3, §4, §5, §6

CDK9 = biological target: T26, CDK9 (Homo sapiens, UniProt P50750); conditions: CDK9, 100 nM; read-out: Percent Control
T26 construct: purchased DiscoveRx KINOMEscan (TRKA and CSF1R IC50 enzymes from Invitrogen)
Experimental: as §1, §2, §3, §4, §5, §6

[2] = biological target: T27, RPS6KA4(Kin.Dom.2-C-terminal) (Homo sapiens, UniProt O75676); conditions: 100 nM, read-out: Percent Control
T27 construct: RPS6KA4(Kin.Dom.2-C-terminal); purchased DiscoveRx KINOMEscan (TRKA and CSF1R IC50 enzymes from Invitrogen)
Experimental: as §1, §2, §3, §4, §5, §6

TXK = biological target: T28, TXK (Homo sapiens, UniProt P42681); conditions: 100 nM, read-out: Percent Control
T28 construct: purchased DiscoverX (outsourced KINOMEscan)
Experimental: as §1, §2, §3, §4, §5, §6

EIF2AK1 = biological target: T29, EIF2AK1 (Homo sapiens, UniProt Q9BQI3); conditions: EIF2AK1, 100 nM; read-out: Percent Control
T29 construct: purchased DiscoveRx KINOMEscan (TRKA and CSF1R IC50 enzymes from Invitrogen)
Experimental: as §1, §2, §3, §4, §5, §6

IRAK4 = biological target: T30, IRAK4 (Homo sapiens, UniProt Q9NWZ3); conditions: IRAK4, 100 nM; read-out: Percent Control
T30 construct: purchased DiscoveRx KINOMEscan (TRKA and CSF1R IC50 enzymes from Invitrogen)
Experimental: as §1, §2, §3, §4, §5, §6

T24 sequence (Q16288 32-839): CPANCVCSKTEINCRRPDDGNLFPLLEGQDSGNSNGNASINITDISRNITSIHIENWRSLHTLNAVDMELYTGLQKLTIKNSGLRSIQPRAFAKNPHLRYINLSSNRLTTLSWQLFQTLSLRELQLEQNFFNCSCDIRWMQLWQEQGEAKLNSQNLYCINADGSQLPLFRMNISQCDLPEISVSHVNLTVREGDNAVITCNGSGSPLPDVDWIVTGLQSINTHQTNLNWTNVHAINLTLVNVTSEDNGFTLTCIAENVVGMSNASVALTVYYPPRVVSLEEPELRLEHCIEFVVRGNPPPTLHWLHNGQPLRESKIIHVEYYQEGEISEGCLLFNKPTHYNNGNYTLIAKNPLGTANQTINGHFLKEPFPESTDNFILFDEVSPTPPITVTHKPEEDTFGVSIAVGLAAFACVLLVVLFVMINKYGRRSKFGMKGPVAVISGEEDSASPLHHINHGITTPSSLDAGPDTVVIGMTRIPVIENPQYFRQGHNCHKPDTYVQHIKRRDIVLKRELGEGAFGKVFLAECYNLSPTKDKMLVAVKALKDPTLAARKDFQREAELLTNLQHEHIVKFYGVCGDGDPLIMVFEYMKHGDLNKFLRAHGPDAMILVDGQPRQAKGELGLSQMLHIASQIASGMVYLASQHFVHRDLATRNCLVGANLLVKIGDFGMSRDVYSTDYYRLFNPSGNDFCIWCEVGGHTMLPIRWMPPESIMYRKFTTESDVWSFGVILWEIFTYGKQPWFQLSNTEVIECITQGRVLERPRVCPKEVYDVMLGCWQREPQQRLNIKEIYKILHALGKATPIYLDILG
T3 sequence (P08631 whole entry): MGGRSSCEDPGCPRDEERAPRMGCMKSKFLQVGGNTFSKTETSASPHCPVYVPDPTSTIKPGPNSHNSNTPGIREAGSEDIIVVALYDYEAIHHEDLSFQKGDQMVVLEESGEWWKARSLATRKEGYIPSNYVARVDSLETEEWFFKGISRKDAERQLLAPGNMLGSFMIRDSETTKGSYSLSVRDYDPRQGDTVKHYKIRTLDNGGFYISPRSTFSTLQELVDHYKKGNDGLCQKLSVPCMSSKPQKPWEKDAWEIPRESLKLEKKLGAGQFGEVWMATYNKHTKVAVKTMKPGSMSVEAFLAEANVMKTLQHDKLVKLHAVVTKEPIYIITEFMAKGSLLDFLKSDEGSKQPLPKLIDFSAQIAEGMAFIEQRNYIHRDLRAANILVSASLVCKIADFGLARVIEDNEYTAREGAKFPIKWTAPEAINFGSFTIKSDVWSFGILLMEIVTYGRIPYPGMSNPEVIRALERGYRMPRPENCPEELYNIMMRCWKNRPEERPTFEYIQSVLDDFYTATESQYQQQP
T17 sequence (O15530 whole entry): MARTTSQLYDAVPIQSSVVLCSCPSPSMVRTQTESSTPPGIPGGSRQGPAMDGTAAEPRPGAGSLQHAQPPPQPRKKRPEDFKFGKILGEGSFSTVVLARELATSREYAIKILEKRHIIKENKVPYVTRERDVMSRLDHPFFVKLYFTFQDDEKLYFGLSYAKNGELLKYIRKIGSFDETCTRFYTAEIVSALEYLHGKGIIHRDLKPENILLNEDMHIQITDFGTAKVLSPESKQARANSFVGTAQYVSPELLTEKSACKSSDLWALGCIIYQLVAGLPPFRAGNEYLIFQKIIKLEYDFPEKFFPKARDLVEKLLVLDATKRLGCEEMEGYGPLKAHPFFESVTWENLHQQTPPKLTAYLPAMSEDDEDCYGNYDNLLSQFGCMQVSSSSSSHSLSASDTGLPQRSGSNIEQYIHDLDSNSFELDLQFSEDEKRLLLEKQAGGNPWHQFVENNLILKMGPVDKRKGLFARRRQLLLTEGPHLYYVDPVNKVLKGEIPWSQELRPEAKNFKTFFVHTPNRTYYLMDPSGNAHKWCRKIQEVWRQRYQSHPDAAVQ
T21 sequence (Q9BYT3 whole entry): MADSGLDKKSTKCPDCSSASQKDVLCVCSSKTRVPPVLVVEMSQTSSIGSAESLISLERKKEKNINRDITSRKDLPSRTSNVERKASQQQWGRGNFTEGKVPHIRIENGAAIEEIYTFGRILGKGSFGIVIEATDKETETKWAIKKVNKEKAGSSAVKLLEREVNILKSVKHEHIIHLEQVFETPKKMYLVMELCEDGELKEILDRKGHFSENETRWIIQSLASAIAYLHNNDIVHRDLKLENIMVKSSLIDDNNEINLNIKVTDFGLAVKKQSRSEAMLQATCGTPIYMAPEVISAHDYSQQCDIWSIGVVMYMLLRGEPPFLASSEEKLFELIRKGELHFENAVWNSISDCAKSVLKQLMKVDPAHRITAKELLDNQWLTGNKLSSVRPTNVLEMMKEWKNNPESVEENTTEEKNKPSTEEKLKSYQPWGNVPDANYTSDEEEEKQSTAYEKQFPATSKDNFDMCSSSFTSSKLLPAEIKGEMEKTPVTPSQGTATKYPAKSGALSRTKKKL
T15 sequence (P23458 561-860 limits assumed): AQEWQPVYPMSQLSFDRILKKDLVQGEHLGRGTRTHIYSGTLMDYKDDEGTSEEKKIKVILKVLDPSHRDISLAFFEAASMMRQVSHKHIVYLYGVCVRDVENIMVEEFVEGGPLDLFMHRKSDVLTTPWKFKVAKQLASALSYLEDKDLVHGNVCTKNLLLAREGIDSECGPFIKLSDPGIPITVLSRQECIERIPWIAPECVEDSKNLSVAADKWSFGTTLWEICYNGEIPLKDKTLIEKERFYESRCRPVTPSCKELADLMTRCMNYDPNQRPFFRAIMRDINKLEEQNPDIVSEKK
T23 sequence (Q96GD4 whole entry): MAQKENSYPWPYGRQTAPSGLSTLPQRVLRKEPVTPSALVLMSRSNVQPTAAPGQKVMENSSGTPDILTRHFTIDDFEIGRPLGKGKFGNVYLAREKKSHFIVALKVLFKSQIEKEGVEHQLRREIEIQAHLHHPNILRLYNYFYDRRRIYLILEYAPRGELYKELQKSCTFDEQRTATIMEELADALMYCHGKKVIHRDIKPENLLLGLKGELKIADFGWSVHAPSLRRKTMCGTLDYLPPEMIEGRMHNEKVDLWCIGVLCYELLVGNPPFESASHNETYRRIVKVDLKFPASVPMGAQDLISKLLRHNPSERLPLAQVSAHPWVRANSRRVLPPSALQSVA
T29 sequence (Q9BQI3 whole entry): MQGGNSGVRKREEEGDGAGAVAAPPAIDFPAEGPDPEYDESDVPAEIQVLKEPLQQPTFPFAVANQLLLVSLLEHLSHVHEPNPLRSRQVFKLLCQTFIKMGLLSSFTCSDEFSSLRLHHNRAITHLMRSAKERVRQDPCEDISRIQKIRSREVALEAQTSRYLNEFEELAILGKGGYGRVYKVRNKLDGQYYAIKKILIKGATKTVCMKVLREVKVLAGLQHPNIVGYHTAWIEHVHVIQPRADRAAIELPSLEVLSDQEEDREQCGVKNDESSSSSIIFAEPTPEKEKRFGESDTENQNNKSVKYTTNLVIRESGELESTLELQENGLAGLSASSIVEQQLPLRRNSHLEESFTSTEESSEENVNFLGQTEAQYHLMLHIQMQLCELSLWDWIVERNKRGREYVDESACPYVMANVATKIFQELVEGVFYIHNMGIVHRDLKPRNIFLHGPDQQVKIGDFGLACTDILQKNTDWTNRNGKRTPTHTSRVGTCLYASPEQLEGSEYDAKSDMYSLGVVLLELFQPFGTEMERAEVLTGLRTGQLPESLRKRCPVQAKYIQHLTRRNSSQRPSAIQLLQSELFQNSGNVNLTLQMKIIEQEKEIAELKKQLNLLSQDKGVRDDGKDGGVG
T4 sequence (Q02750 whole entry): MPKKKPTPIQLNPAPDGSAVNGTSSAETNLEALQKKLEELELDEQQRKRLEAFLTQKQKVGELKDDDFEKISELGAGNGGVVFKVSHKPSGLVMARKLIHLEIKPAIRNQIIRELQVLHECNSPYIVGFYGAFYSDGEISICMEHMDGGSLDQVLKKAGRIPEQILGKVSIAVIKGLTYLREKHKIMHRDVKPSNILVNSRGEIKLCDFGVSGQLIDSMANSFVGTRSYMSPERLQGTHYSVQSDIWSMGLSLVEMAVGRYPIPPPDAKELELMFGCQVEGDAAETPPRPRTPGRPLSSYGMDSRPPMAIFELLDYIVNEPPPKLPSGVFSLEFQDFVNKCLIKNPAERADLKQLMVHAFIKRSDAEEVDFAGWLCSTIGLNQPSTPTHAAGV
T2 sequence (Q9UKI8 whole entry): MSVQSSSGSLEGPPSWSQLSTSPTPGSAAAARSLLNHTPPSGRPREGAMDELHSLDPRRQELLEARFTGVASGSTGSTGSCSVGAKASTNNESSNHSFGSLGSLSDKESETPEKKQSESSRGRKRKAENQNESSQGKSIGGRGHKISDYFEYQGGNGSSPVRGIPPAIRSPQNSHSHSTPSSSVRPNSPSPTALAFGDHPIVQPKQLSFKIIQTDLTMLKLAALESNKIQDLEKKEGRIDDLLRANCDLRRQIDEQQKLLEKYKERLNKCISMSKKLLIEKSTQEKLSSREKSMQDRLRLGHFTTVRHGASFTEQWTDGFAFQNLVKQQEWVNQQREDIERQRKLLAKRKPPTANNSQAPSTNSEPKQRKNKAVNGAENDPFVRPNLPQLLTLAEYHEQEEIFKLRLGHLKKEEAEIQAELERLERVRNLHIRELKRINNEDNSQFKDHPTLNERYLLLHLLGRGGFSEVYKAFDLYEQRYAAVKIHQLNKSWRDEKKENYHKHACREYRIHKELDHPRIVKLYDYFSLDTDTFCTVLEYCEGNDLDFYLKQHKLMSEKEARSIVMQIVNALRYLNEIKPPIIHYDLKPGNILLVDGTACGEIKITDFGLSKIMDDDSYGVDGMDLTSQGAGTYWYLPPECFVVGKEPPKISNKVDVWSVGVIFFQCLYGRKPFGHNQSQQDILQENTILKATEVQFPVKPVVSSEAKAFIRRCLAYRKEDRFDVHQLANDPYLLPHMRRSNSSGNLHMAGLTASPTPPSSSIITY

## CC(C)(C)c1cc(NC(=O)Cc2ccc(-n3cnc4cc(-c5ccc(S(C)(=O)=O)cc5)ccc43)cc2)no1 [NPA101.3]
MUSK
  remaining binding at 0.1 µM: 23%
TLK1
  remaining binding at 0.1 µM: 100%
HCK
  binding (% bound): > 90 % bound
HCK; HCK, read-out: Percent Control
  remaining binding at 0.1 µM: 6.5%
MEK1
  remaining binding at 0.1 µM: 92%
SLK
  remaining binding at 0.1 µM: 35%
CTK
  remaining binding at 0.1 µM: 56%
MLK3
  remaining binding at 0.1 µM: 100%
NDR1
  remaining binding at 0.1 µM: 86%
IGF1R
  remaining binding at 0.1 µM: 100%
PKAC-beta
  remaining binding at 0.1 µM: 82%
FGFR3
  remaining binding at 0.1 µM: 100%
FYN
  remaining binding at 0.1 µM: 27%
LKB1
  remaining binding at 0.1 µM: 81%
PIK3CA
  remaining binding at 0.1 µM: 100%
[1]
  remaining binding at 0.1 µM: 93%
YANK2
  remaining binding at 0.1 µM: 98%
PDPK1
  remaining binding at 0.1 µM: 96%
BMX
  remaining binding at 0.1 µM: 94%
CDK7
  remaining binding at 0.1 µM: 28%
MTOR
  remaining binding at 0.1 µM: 97%
STK33
  remaining binding at 0.1 µM: 83%
GSK3B
  remaining binding at 0.1 µM: 100%
AURKB
  remaining binding at 0.1 µM: 49%
TRKC
  binding (% bound): > 90 % bound
TRKC; TRKC, read-out: Percent Control
  remaining binding at 0.1 µM: 0.25%
EGFR
  remaining binding at 0.1 µM: 96%
CDK9
  remaining binding at 0.1 µM: 100%
[2]
  remaining binding at 0.1 µM: 100%
TXK
  remaining binding at 0.1 µM: 85%
EIF2AK1
  remaining binding at 0.1 µM: 99%
IRAK4
  remaining binding at 0.1 µM: 100%
